In patent publication US9326990B2, “Heart failure suppressing agent” (THE UNIVERSITY OF TOKYO, priority 2011, dated 2016):

How the values were obtained:
Format in all cases: in vivo
[1] = test system: angiotensin II-continuous infusion SD rat; assay: Angiotensin II-continuous infusion rat model of cardiac fibrosis and cardiomegaly
Method: Angiotensin II was continuously infused to an 8 week-old male SD rat, and the action of luteolin glycoside (luteolin-7-O-glucoside was used) to cardiac fibrosis and cardiomegaly in the acceleration state of oxidative stress was investigated. For the control group, rats were normally raised. For the angiotensin II group (Ang II group), an angiotensin II-continuous infusion pump was implanted subcutaneously in the rat, and continuous infusion was performed for 7 days. For the luteolin glycoside simultaneous-administration group (Ang II+LMG group), a luteolin glycoside-blended feed (3.6 g of luteolin monoglycoside (LMG) was blended per 10 kg of feed) was fed for 3 weeks, then an angiotensin II-continuous infusion pump was implanted subcutaneously, and continuous infusion was performed for 7 days.
(§1) The blood pressure was measured at the seventh day, the degree of the ventricular wall thickness was evaluated with echocardiographic examination, then the heart was removed, and the weights of the heart and the ventricle were measured. The reactive oxygen was evaluated with hydroethidine staining, and the degree of fibrosis was evaluated with Masson's trichrome staining. Gene expressions of the fibrosis marker, and the heart failure marker in the ventricular tissue were evaluated with real time PCR.

[2] = test system: TGF-β1 (transforming growth factor) gene expression; assay: Real time PCR of fibrosis marker gene TGF-β1 in ventricular tissue, angiotensin II rat model; settings: corrected with GAPDH, Ang II + luteolin glycoside, FIG. 6
Method: (§2) Angiotensin II was continuously infused to an 8 week-old male SD rat, and the action of luteolin glycoside (luteolin-7-O-glucoside was used) to cardiac fibrosis and cardiomegaly in the acceleration state of oxidative stress was investigated. For the control group, rats were normally raised. For the angiotensin II group (Ang II group), an angiotensin II-continuous infusion pump was implanted subcutaneously in the rat, and continuous infusion was performed for 7 days. […]
as §1
(§3) RNA was extracted from the ventricular tissue, and expression amounts of various genes were evaluated with real time PCR.

[3] = test system: CTGF (connective tissue growth factor) gene expression; assay: Real time PCR of fibrosis marker gene CTGF in ventricular tissue, angiotensin II rat model; settings: corrected with GAPDH, Ang II + luteolin glycoside, FIG. 6
Method: as §2, §1, §3

[4] = test system: ANP (atrial natriuretic peptide) gene expression; assay: Real time PCR of cardiomegaly/heart failure marker gene ANP in ventricular tissue, angiotensin II rat model; settings: corrected with GAPDH, Ang II + luteolin glycoside, FIG. 7
Method: as §2, §1, §3

[5] = test system: BNP (brain natriuretic peptide) gene expression; assay: Real time PCR of cardiomegaly/heart failure marker gene BNP in ventricular tissue, angiotensin II rat model; settings: corrected with GAPDH, Ang II + luteolin glycoside, FIG. 7
Method: as §2, §1, §3

[6] = test system: ApoE gene-deficient female mouse (ApoE−/−); assay: Acute aneurysm model by angiotensin II-continuous infusion in ApoE gene-deficient mouse
Excerpt: Angiotensin II was continuously infused (for 16 weeks to 20 weeks) to a 12 week-old ApoE gene-deficient female mouse (ApoE−/−) (about 25 g of body weight) whereby to prepare an acute aneurysm model, and the action of luteolin glycoside (luteolin-7-O-glucoside was used) was investigated. For the control group (n=5), mice were normally raised (saline was continuously infused). For the angiotensin II group ([…]), an angiotensin II-continuous infusion pump was implanted subcutaneously in the mouse, and continuous infusion was performed for 4 weeks. For the luteolin glycoside simultaneous-administration group (Ang II+luteolin group), a luteolin glycoside-blended feed (0.055% of luteolin-7-O-glucoside was blended per feed) was fed for 3 weeks, then an angiotensin II-continuous infusion pump was implanted subcutaneously, and continuous infusion was performed for 4 weeks.
When the mouse was 20 weeks old, the blood pressure and body weight were measured, then the heart, the kidney and the aorta were removed, and generation of aneurysm was observed.

[7] = Plasma luteolin concentration after oral administration to rats; settings: male SD rat, 93 mg/kg PO; in comparison to luteolin (51 mg/kg PO) and luteolin-7-O-apiosyl glucoside (175 mg/kg PO), same aglycone amount; 0.5-8 hours; FIG. 12
Method: Luteolin (51 mg/kg, PO), luteolin-7-O-glucoside (93 mg/kg, PO) and luteolin-7-O-apiosyl glucoside (175 mg/kg, PO) were orally administered to rats (8 weeks old, male SD rat), the blood was collected just before the administration, and at 0.5 hours, 1 hour, 2 hours and 8 hours after the administration from the tail vein, and the plasma luteolin concentration was measured. Meanwhile, the doses of each of the luteolin and a glycoside thereof were the same in terms of the amount of luteolin that is an aglycone.

SMILES: O=c1cc(-c2ccc(O)c(O)c2)oc2cc(O[C@@H]3O[C@H](CO)[C@@H](O)[C@H](O)[C@H]3O)cc(O)c12 [luteolin glycoside, luteolin-7-O-glucoside]
- blood pressure increased by angiotensin II-continuous administration ([1]; LMG-blended feed (3.6 g per 10 kg feed) 3 weeks, then Ang II infusion 7 days, seventh day, FIG. 1): did not lower
- fibrosis of the ventricular wall by angiotensin II ([1]; LMG-blended feed, Ang II 7 days, Masson's trichrome staining, FIG. 5): remarkably suppressed
- ventricular wall thickening by angiotensin II administration ([1]; LMG-blended feed, Ang II 7 days, echocardiographic examination, FIG. 2): significantly suppressed
- generation of reactive oxygen in the ventricular wall by angiotensin II ([1]; LMG-blended feed, Ang II 7 days, hydroethidine staining, FIG. 4): remarkably suppressed
- gene expression of TGF-β1 in ventricular tissue [2]: suppression of the expression
- gene expression of CTGF in ventricular tissue [3]: suppression of the expression
- gene expression of ANP in ventricular tissue [4]: suppression of the expression
- gene expression of BNP in ventricular tissue [5]: suppression of the expression
- blood pressure ([6]; 0.055% luteolin-7-O-glucoside feed 3 weeks, then Ang II infusion 4 weeks, 20 weeks old, FIG. 8): not recognized
- body weight ([6]; 0.055% luteolin-7-O-glucoside feed, Ang II 4 weeks, 20 weeks old, FIG. 8): not recognized
- aneurysm formation (appearance) ([6]; 0.055% luteolin-7-O-glucoside feed, Ang II 4 weeks, FIG. 9): definitely suppressed
- diameter of aneurysm ([6]; 0.055% luteolin-7-O-glucoside feed, Ang II 4 weeks, FIG. 10): decreased
- rupture of the arterial wall elastic fiber ([6]; 0.055% luteolin-7-O-glucoside feed, Ang II 4 weeks, FIG. 11): suppressed
- oral absorption (plasma luteolin concentration) [7]: remarkably higher
